The source of these data is ChEMBL document CHEMBL5107996, “Design and evaluation of achiral, non-atropisomeric 4-(aminomethyl)phthalazin-1(2H)-one derivatives as novel PRMT5/MTA inhibitors” (Bioorg Med Chem, 2022).

One series relates to HepG2. Nature of the series: Antiproliferative activity against human HepG2 cells assessed as inhibition of cell viability measured after 120 hrs CellTiter-Glo assay. It counts as functional, cell-based. The conditions noted are these: HepG2, 120 h. (ATP-based viability assays read luminescence as a measure of living cells.)
A short description of series [1]: Metabolic stability in human hepatocytes assessed as intrinsic clearance. The format is ADME, cell-based, Hepatocyte. Conditions: read-out: CLH.
The target of series [2] is T1, Protein arginine N-methyltransferase 5 (Homo sapiens, UniProt O14744). Nature of the series: Inhibition of PRMT5 (unknown origin) using H2A and 3H-SAM as substrates preincubated for 20 mins followed by substrate addition incubated for 60 mins in presence of MTA by radiometric HotSpot assay.
T1 sequence (O14744 whole entry): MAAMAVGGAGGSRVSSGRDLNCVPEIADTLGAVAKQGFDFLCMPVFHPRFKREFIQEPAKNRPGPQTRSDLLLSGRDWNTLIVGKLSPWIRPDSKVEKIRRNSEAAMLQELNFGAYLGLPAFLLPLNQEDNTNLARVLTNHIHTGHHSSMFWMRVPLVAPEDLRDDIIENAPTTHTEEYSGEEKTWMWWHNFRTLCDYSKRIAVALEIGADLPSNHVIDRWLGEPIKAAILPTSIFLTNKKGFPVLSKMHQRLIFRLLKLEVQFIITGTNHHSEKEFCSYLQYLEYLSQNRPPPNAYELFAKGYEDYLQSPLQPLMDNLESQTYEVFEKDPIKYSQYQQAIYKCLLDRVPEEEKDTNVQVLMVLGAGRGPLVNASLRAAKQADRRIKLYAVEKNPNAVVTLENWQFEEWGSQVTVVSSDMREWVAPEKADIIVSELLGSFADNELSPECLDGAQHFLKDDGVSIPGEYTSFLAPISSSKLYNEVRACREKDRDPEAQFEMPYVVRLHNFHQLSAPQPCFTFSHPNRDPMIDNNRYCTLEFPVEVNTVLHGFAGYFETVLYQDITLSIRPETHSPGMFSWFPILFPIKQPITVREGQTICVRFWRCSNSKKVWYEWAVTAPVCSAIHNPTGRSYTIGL
The target of series [3] is T1, Protein arginine N-methyltransferase 5. Nature of the series: Inhibition of PRMT5 methyltransferase activity in human HCT-116 cells expressing wild type MTAP assessed as inhibition of PRMT5-mediated SDMA modification level incubated for 96 hrs by In-cell Western analysis. The format is cell-based.
Series [4] in a line: Ratio IC50 for antiproliferative activity against human HCT-116 cells expressing wild type MTAP to IC50 for antiproliferative activity against MTAP knockout human HCT-116 cells.
Series [5] has as its system HCT-116. Nature of the series: Antiproliferative activity against MTAP knockout human HCT-116 cells assessed as cell viability after 10 days by CellTiter-Glo assay. The format is functional, cell-based. The conditions noted are these: HCT-116, 240 h.
For series [6], the system named is HCT-116. Nature of the series: Antiproliferative activity against human HCT-116 cells expressing wild type MTAP assessed as cell viability after 10 days by CellTiter-Glo assay. The format is functional, cell-based. The conditions noted are these: HCT-116, 240 h.
Series [7] concerns the target T1, Protein arginine N-methyltransferase 5. Nature of the series: Inhibition of PRMT5 methyltransferase activity in MTAP knockout human HCT-116 cells assessed as inhibition of PRMT5-mediated SDMA modification level incubated for 96 hrs by In-cell Western analysis. It counts as cell-based.

SMILES strings stand for the structures.

Broadly, the IC50 is the midpoint of a concentration-inhibition curve. As for `Cn1ncc(-c2ccc3c(=O)[nH]nc(CN)c3c2)c1-c1c(F)c(Cl)cc(OC2CC2)c1C#N`, the IC50 with HepG2 was found to be 6600 nM. Also, the CLint scaled in series [1] was less than 18 mL/min/kg.
As to `Cn1ncc(-c2ccc3c(=O)[nH]nc(CN)c3c2)c1-c1sc2ccccc2c1C#N`, the IC50 was 37 nM in series [2], 18300 nM in the series on HepG2 and more than 1000 nM in series [3]. Also, in series [4], the “Ratio IC50” value is recorded as 100.
Regarding `Cn1ncc(-c2cc(C(F)F)c3c(=O)[nH]nc(CN)c3c2)c1-c1sc2ccccc2c1C#N`, the IC50 came to 37 nM with HCT-116 [5], 2030 nM in the series on HCT-116 [6], 25 nM in series [7] and 759 nM in series [3]. Also, the CLint scaled in series [1] worked out at 44 mL/min/kg. Moreover, the “Ratio IC50” value in series [4] is recorded as 55.
Turning to `Cn1ncc(-c2cc([C@H]3CCCO3)c3c(=O)[nH]nc(CN)c3c2)c1-c1sc2ccccc2c1C#N`, the IC50 was determined as 16 nM in the series on HCT-116 [5]; 29 nM in the series with HCT-116 [6]; 290 nM in the series with HepG2; 4 nM in series [7]; 174 nM in series [3]. Further, in series [1], the CLint scaled came out at 39 mL/min/kg. The “Ratio IC50” value in series [4] is on record as 2.
With `COCc1cc(-c2cnn(C)c2-c2sc3ccccc3c2C#N)cc2c(CN)n[nH]c(=O)c12`, the IC50 with HCT-116 [5] turned out to be 19 nM; in the series with HCT-116 [6], 51 nM; with HepG2, 490 nM; in series [7], 5 nM; in series [3] it was 267 nM. The CLint scaled in series [1] came out at 66 mL/min/kg. For the same molecule, the “Ratio IC50” value in series [4] is reported as 3.
For the molecule `Cn1ncc(-c2cc(O)c3c(=O)[nH]nc(CN)c3c2)c1-c1sc2ccccc2c1C#N`, the IC50 was 188 nM in the series with HCT-116 [5], 4350 nM with HCT-116 [6], 262 nM in series [7] and more than 1000 nM in series [3]. Also, in series [1], the CLint scaled was less than 18 mL/min/kg. In series [4], the “Ratio IC50” value worked out at 23.
As for `Cn1ncc(-c2cc([C@@H]3CCCO3)c3c(=O)[nH]nc(CN)c3c2)c1-c1sc2ccccc2c1C#N`, the IC50 in the series with HCT-116 [5] is 711 nM; in the series on HCT-116 [6], 2050 nM; in series [7], 390 nM; in series [3], more than 1000 nM. In addition, the CLint scaled in series [1] amounted to 43 mL/min/kg. Further, in series [4], the “Ratio IC50” value is listed as 3.
Regarding `Cn1ncc(-c2ccc3c(=O)[nH]nc(CN)c3c2)c1-c1sc2ncccc2c1C#N`, the IC50 with HCT-116 [5] was determined as 315 nM; in series [2], 99 nM.
Take `Cn1ncc(-c2ccc3c(=O)[nH]nc(CN)c3n2)c1-c1sc2ccccc2c1C#N`: the IC50 with HCT-116 [5] stood at 250 nM.
Regarding `Cn1ncc(-c2cnc3c(=O)[nH]nc(CN)c3c2)c1-c1sc2ccccc2c1C#N`, the IC50 was 3510 nM with HCT-116 [5] and 1350 nM in series [2].
`CCOc1cc(-c2cnn(C)c2-c2sc3ccccc3c2C#N)cc2c(CN)n[nH]c(=O)c12`: the IC50 in the series with HCT-116 [5] was 150 nM; in the series on HCT-116 [6] it was 637 nM; in series [7] it was 112 nM; in series [3], 618 nM. The CLint scaled in series [1] was less than 18 mL/min/kg. For the same molecule, the “Ratio IC50” value in series [4] is 4.
On to `Cn1ncc(-c2ccc3c(=O)[nH]nc(CN)c3c2)c1-c1sc2cccnc2c1C#N`, for which the concentration for half-maximal inhibition (IC50) with HCT-116 [5] amounted to 1540 nM; in series [2], 650 nM.
For `Cn1ncc(-c2cc(Cl)c3c(=O)[nH]nc(CN)c3c2)c1-c1sc2ccccc2c1C#N`, the IC50 in the series on HCT-116 [5] is 52 nM; with HCT-116 [6] it was 734 nM; in series [7], 17 nM; in series [3], more than 1000 nM. Also, in series [1], the CLint scaled turned out to be 71 mL/min/kg. Besides, in series [4], the “Ratio IC50” value stood at 14.
For `Cn1ncc(-c2ccc3c(=O)[nH]nc(CN)c3c2)c1-c1sc2ccncc2c1C#N`, the values for the IC50 (in the series with HCT-116 [5]; in series [2]) were 2940 nM and 768 nM, respectively.
Take `Cc1cc(-c2cnn(C)c2-c2sc3ccccc3c2C#N)cc2c(CN)n[nH]c(=O)c12`: the IC50 in the series with HCT-116 [5] is 30 nM; with HCT-116 [6], 1470 nM; in series [7], 17 nM; in series [3], more than 1000 nM. Also, in series [1], the CLint scaled was 27 mL/min/kg. Also, the “Ratio IC50” value in series [4] is 49.
Consider `Cn1ncc(-c2ccc3c(=O)[nH]nc(CN)c3c2)c1-c1sc2cnccc2c1C#N`, for which the values for the IC50 (in the series with HCT-116 [5]; in series [2]) were 1470 nM and 223 nM, respectively.
